Source: PubChem BioAssay AID246 (DTP/NCI, 2004)
Where “and” joins values, the source holds several entries; their conditions need not be identical. Equal values may be shown once. Inconclusive results and toxic doses are left out.

Test system: BDF1 mice, P1081 chloroleukemia ip, survival T/C
Test: NCI In Vivo Anticancer Drug Screen. Data for tumor model P1081 Chloroleukemia (intraperitoneal) in B6D2F1 (BDF1) mice
Conditions: endpoint: mean survival time, higher = longer survival
Protocol: The antitumor activity of compounds was measured in mice bearing transplantable tumors. Survival or tumor size were measured and the results are expressed as the measurement made in the treated group (T) divided by the measurement made in the vehicle treated control group (C). The tumor model used in this assay is P1081 Chloroleukemia (intraperitoneal) in B6D2F1 (BDF1) mice

[1] = dose: 62.5 mg/kg/injection, schedule: Q01DX Z (sc), vehicle: steriod suspending solution
[2] = dose: 125.0 mg/kg/injection, schedule: Q01DX Z (sc), vehicle: steriod suspending solution
[3] = dose: 250.0 mg/kg/injection, schedule: Q01DX Z (sc), vehicle: steriod suspending solution
[4] = dose: 500.0 mg/kg/injection, schedule: Q01DX Z (sc), vehicle: steriod suspending solution
[5] = dose: 100.0 mg/kg/injection, schedule: Q01DX010 (ip), vehicle: saline
[6] = dose: 6.25 mg/kg/injection, schedule: Q01DX Z (ip), vehicle: carboxymethylcellulose (CMC)
[7] = dose: 12.5 mg/kg/injection, schedule: Q01DX Z (ip), vehicle: carboxymethylcellulose (CMC)
[8] = dose: 31.3 mg/kg/injection, schedule: Q01DX010 (ip), vehicle: saline
[9] = dose: 62.5 mg/kg/injection, schedule: Q01DX010 (ip), vehicle: saline
[10] = dose: 125.0 mg/kg/injection, schedule: Q01DX010 (ip), vehicle: saline
[11] = dose: 25.0 mg/kg/injection, schedule: Q01DX Z (ip), vehicle: carboxymethylcellulose (CMC)
[12] = dose: 62.5 mg/kg/injection, schedule: Q01DX Z (ip), vehicle: carboxymethylcellulose (CMC)
[13] = dose: 63.0 mg/kg/injection, schedule: Q01DX Z (ip), vehicle: carboxymethylcellulose (CMC)
[14] = dose: 0.31 mg/kg/injection, schedule: Q01DX Z (ip), vehicle: carboxymethylcellulose (CMC)
[15] = dose: 0.63 mg/kg/injection, schedule: Q01DX Z (ip), vehicle: carboxymethylcellulose (CMC)
[16] = dose: 2.5 mg/kg/injection, schedule: Q01DX Z (ip), vehicle: carboxymethylcellulose (CMC)
[17] = dose: 5.0 mg/kg/injection, schedule: Q01DX Z (ip), vehicle: carboxymethylcellulose (CMC)

In the case of `C[C@]12CCC(=O)C=C1CC[C@@H]1[C@@H]2CC[C@@]2(C)[C@H]1CC[C@]2(C)O`, the T/C [1] is reported as 101 % of control, the T/C [2] is reported as 101 % of control and the T/C [3] is reported as 106 % of control and 108 % of control. For the same molecule, the T/C [4] was 91 % of control and 101 % of control and the T/C (dose: 1000.0 mg/kg/injection, schedule: Q01DX Z (sc), vehicle: steriod suspending solution) was 100 % of control.

With `COc1cc2c(cc1I)-c1c(cc(OC)c(OC)c1OC)CC[C@@H]2NC(C)=O` the T/C (dose: 45.0 mg/kg/injection, schedule: Q01DX010 (ip), vehicle: saline) was 120 % of control, the T/C (dose: 67.0 mg/kg/injection, schedule: Q01DX010 (ip), vehicle: saline) was 115 % of control and the T/C [5] was 115 % of control. For the same molecule, the T/C (dose: 150.0 mg/kg/injection, schedule: Q01DX010 (ip), vehicle: saline) was 111 % of control and 115 % of control and the T/C (dose: 225.0 mg/kg/injection, schedule: Q01DX010 (ip), vehicle: saline) was 100 % of control.

In the case of `CN(C)/N=N/c1nc[nH]c1C(N)=O`, the T/C (dose: 25.0 mg/kg/injection, schedule: Q01DX010 (ip), vehicle: saline) is reported as 120 % of control, the T/C (dose: 50.0 mg/kg/injection, schedule: Q01DX010 (ip), vehicle: saline) is reported as 120 % of control and the T/C [5] is reported as 160 % of control and 177 % of control. The T/C (dose: 200.0 mg/kg/injection, schedule: Q01DX010 (ip), vehicle: saline) was 122 % of control.

For `CCN(CC)C(=S)S`, the T/C (dose: 125.0 mg/kg/injection, schedule: Q01DX Z (ip), vehicle: other) was 99 % of control, the T/C (dose: 250.0 mg/kg/injection, schedule: Q01DX Z (ip), vehicle: other) was 96 % of control and the T/C (dose: 1000.0 mg/kg/injection, schedule: Q01DX Z (ip), vehicle: other) was 102 % of control.

In the case of `CCCSc1ncnc2nc[nH]c12`, the T/C [6] is reported as 111 % of control, the T/C [7] is reported as 122 % of control and the T/C [8] is reported as 105 % of control and 100 % of control. For the same molecule, the T/C [9] was 105 % of control and 111 % of control, the T/C [10] was 105 % of control and 111 % of control and the T/C (dose: 250.0 mg/kg/injection, schedule: Q01DX010 (ip), vehicle: saline) was 122 % of control and 100 % of control.

`C[C@]12CCC(=O)C[C@H]1CC[C@@H]1[C@@H]2CC[C@@]2(C)[C@H]1CC[C@]2(C)O` was tested, and the T/C [1] was 114 % of control, the T/C [2] was 100 % of control and the T/C [3] was 110 % of control. For the same molecule, the T/C [4] was 112 % of control.

`CSc1ncnc2c1ncn2C1OC(CO)C(O)C1O` (stereo not drawn) was tested, and the T/C (dose: 3.1 mg/kg/injection, schedule: Q01DX Z (ip), vehicle: carboxymethylcellulose (CMC)) was 105 % of control and 92 % of control, the T/C [6] was 102 % of control and the T/C [7] was 105 % of control and 90 % of control. The T/C [11] was 105 % of control and 98 % of control.

In the case of `O=C(Nc1ccc(C2=NCCCN2)cc1)c1ccc(C(=O)Nc2ccc(C3=NCCCN3)cc2)cc1`, the T/C (dose: 0.5 mg/kg/injection, schedule: Q01DX Z (ip), vehicle: water) is reported as 109 % of control and 101 % of control, the T/C (dose: 1.0 mg/kg/injection, schedule: Q01DX Z (ip), vehicle: water) is reported as 110 % of control and 118 % of control and the T/C (dose: 4.0 mg/kg/injection, schedule: Q01DX Z (ip), vehicle: water) is reported as 162 % of control.

With `Nc1ncnc2[nH]ncc12` the T/C (dose: 0.78 mg/kg/injection, schedule: Q01DX Z (ip), vehicle: carboxymethylcellulose (CMC)) was 94 % of control, the T/C (dose: 1.5 mg/kg/injection, schedule: Q01DX010 (ip), vehicle: saline) was 111 % of control and the T/C (dose: 1.56 mg/kg/injection, schedule: Q01DX Z (ip), vehicle: carboxymethylcellulose (CMC)) was 103 % of control. The T/C (dose: 3.0 mg/kg/injection, schedule: Q01DX010 (ip), vehicle: saline) was 116 % of control and 100 % of control, the T/C (dose: 3.12 mg/kg/injection, schedule: Q01DX Z (ip), vehicle: carboxymethylcellulose (CMC)) was 112 % of control and the T/C (dose: 6.0 mg/kg/injection, schedule: Q01DX010 (ip), vehicle: saline) was 111 % of control and 105 % of control. For the same molecule, the T/C [6] was 94 % of control and the T/C (dose: 12.0 mg/kg/injection, schedule: Q01DX010 (ip), vehicle: saline) was 88 % of control and 105 % of control.

`CN(N=O)C(=O)NC(C=O)C(O)C(O)C(O)CO` (stereo not drawn) was tested, and the T/C [6] was 93 % of control, the T/C [7] was 102 % of control and the T/C [11] was 112 % of control. The T/C (dose: 50.0 mg/kg/injection, schedule: Q01DX Z (ip), vehicle: carboxymethylcellulose (CMC)) was 100 % of control, the T/C (dose: 50.0 mg/kg/injection, schedule: Q01DX Z (ip), vehicle: saline) was 115 % of control and the T/C (dose: 100.0 mg/kg/injection, schedule: Q01DX Z (ip), vehicle: saline) was 107 % of control. The T/C (dose: 200.0 mg/kg/injection, schedule: Q01DX Z (ip), vehicle: saline) was 88 % of control.

For `CCn1cnc2c(=S)nc[nH]c21`, the T/C (dose: 7.75 mg/kg/injection, schedule: Q01DX Z (ip), vehicle: carboxymethylcellulose (CMC)) was 112 % of control, the T/C (dose: 15.5 mg/kg/injection, schedule: Q01DX Z (ip), vehicle: carboxymethylcellulose (CMC)) was 101 % of control and the T/C (dose: 15.6 mg/kg/injection, schedule: Q01DX010 (ip), vehicle: saline) was 110 % of control and 105 % of control. The T/C (dose: 31.0 mg/kg/injection, schedule: Q01DX Z (ip), vehicle: carboxymethylcellulose (CMC)) was 105 % of control, the T/C [8] was 100 % of control and 105 % of control and the T/C [9] was 110 % of control and 105 % of control. For the same molecule, the T/C [12] was 110 % of control, the T/C [13] was 98 % of control and the T/C [10] was 115 % of control. For the same molecule, the T/C (dose: 125.0 mg/kg/injection, schedule: Q01DX Z (ip), vehicle: carboxymethylcellulose (CMC)) was 86 % of control.

`Nc1nc(=S)c2ncn(C3OC(CO)C(O)C3O)c2[nH]1` (stereo not drawn) was tested, and the T/C [14] was 117 % of control, the T/C [15] was 115 % of control and the T/C [16] was 158 % of control. The T/C [17] was 95 % of control, the T/C (dose: 8.0 mg/kg/injection, schedule: Q01DX010 (ip), vehicle: saline) was 95 % of control and the T/C (dose: 16.0 mg/kg/injection, schedule: Q01DX010 (ip), vehicle: saline) was 90 % of control. For the same molecule, the T/C (dose: 20.0 mg/kg/injection, schedule: Q01DX Z (ip), vehicle: carboxymethylcellulose (CMC)) was 90 % of control.

`S=P(N1CCOCC1)(N1CC1)N1CC1` was tested, and the T/C (dose: 2.5 mg/kg/injection, schedule: Q01DX010 (ip), vehicle: saline) was 116 % of control and 100 % of control, the T/C (dose: 5.0 mg/kg/injection, schedule: Q01DX010 (ip), vehicle: saline) was 105 % of control and 100 % of control and the T/C [6] was 93 % of control. The T/C (dose: 10.0 mg/kg/injection, schedule: Q01DX010 (ip), vehicle: saline) was 110 % of control and 122 % of control and the T/C (dose: 20.0 mg/kg/injection, schedule: Q01DX010 (ip), vehicle: saline) was 105 % of control.

`CCOC(=O)NP(=O)(N1CC1(C)C)N1CC1(C)C` (stereo not drawn) was tested, and the T/C (dose: 8.0 mg/kg/injection, schedule: Q01DX Z (ip), vehicle: carboxymethylcellulose (CMC)) was 109 % of control, the T/C (dose: 16.0 mg/kg/injection, schedule: Q01DX Z (ip), vehicle: carboxymethylcellulose (CMC)) was 106 % of control and 99 % of control and the T/C [12] was 87 % of control and 104 % of control. For the same molecule, the T/C [13] was 169 % of control.

For `CCCCCCCCCCCCNCCCCCCCCCCCC`, the T/C (dose: 0.24 mg/kg/injection, schedule: Q01DX Z (ip), vehicle: saline) was 91 % of control, the T/C (dose: 0.48 mg/kg/injection, schedule: Q01DX Z (ip), vehicle: carboxymethylcellulose (CMC)) was 112 % of control and the T/C (dose: 0.48 mg/kg/injection, schedule: Q01DX Z (ip), vehicle: saline) was 90 % of control. The T/C (dose: 1.9 mg/kg/injection, schedule: Q01DX Z (ip), vehicle: carboxymethylcellulose (CMC)) was 101 % of control, the T/C (dose: 1.9 mg/kg/injection, schedule: Q01DX Z (ip), vehicle: saline) was 94 % of control and the T/C (dose: 3.8 mg/kg/injection, schedule: Q01DX Z (ip), vehicle: carboxymethylcellulose (CMC)) was 103 % of control.

In the case of `CCN(CC)c1ccc2cc3ccc(=[N+](CC)CC)cc-3oc2c1`, the T/C [14] is reported as 101 % of control, the T/C [15] is reported as 98 % of control and the T/C (dose: 1.25 mg/kg/injection, schedule: Q01DX Z (ip), vehicle: carboxymethylcellulose (CMC)) is reported as 108 % of control. The T/C [16] was 105 % of control and 114 % of control and the T/C [17] was 96 % of control.

For `Nc1nc2n[nH]nc2c(=O)[nH]1`, the T/C (dose: 50.0 mg/kg/injection, schedule: Q01DX Z (ip), vehicle: other) was 175 % of control and the T/C (dose: 100.0 mg/kg/injection, schedule: Q01DX Z (ip), vehicle: other) was 183 % of control.
